Measured values taken from patent US11628228B2, “99mTc-labeled isonitrile-containing glucose derivative and preparation method and use thereof” (Beijing Shihong Pharmaceutical Research Center, priority 2017, dated 2023).

Columns and labels:
[1] = Determination of the lipid-water partition coefficient (n-octanol/PBS); format: physicochemical
Procedure: One hundred μL of the labeled substance solution (50 μCi) diluted with normal saline is placed into a 2 mL centrifuge tube, and then 800 μL of n-octanol and 700 μL of PBS are added to the centrifuge tube, which is subsequently covered with a cap. The centrifuge tube is vortexed for 3 minutes (2500 r/minute), allowed to stand until the solution is layered, and centrifuged in a centrifuge for 3 minutes (3000 r/minute). Three samples of the upper organic phase and three samples of the lower aqueous phase are taken, each 100 μL, and detected in a γ-counter for the radioactive counts of the organic and aqueous phases, respectively.

[2] = system: S180-bearing mice; assay: Bio-distribution in tumor-bearing mice; format: in vivo; conditions: for Blood uptake / Bone uptake / Heart uptake / Kidney uptake / Liver uptake / Lung uptake / Muscle uptake / Small intestine uptake / Spleen uptake / Stomach uptake / Tumor uptake / Tumor/blood ratio / Tumor/muscle ratio: S180-bearing mice, tail vein; for Tumor/liver ratio: tumor-bearing mice, 0.5 hour after injection
Procedure: The labeled solution (0.1 mL, 74 KBq) is injected into mice through the tail vein, and the injection time is recorded. Then the mice were killed by cervical dislocation at different time phases (30 minutes, 60 minutes, and 120 minutes), five mice for each time phase, and the organs of interest such as heart, liver, lung, kidney, spleen, stomach, muscle, blood and tumor are taken out after dissection, and measured with a γ-counter for the radioactive count of each organ. The uptake value of each organ is obtained by calculation based on the mass of the organ (with % ID/g as the unit).

[3] = system: tumor-bearing mice; assay: SPECT imaging in tumor-bearing mice; format: in vivo; conditions: 0.2 mL, 700 μCi tail vein, imaging 1 hour later
Procedure: The prepared [^99mTc-(CN3DG)6]^+ or [^99mTc-(CN5DG)6]^+ (0.2 mL, 700 μCi) is injected into tumor-bearing mice through tail vein, and SPECT imaging is performed 1 hour later.

[4] = system: tumor-bearing mice; conditions: 0.5 hour after injection, literature; cited from earlier work

In the case of `O=C(CCC[N+]#[C][99Tc-5]([C]#[N+]CCCC(=O)NC1C(O)OC(CO)C(O)C1O)([C]#[N+]CCCC(=O)NC1C(O)OC(CO)C(O)C1O)([C]#[N+]CCCC(=O)NC1C(O)OC(CO)C(O)C1O)([C]#[N+]CCCC(=O)NC1C(O)OC(CO)C(O)C1O)[C]#[N+]CCCC(=O)NC1C(O)OC(CO)C(O)C1O)NC1C(O)OC(CO)C(O)C1O` (centres unmarked) [[^99mTc-(CN3DG)6]^+], the “Log P (lipid-water partition coefficient)” value (from here on “Log P”) [1] is reported as −4.01±0.17, the Blood uptake ([2]; 30 min) is reported as 0.78 ± 0.16 % ID/g and the Bone uptake ([2]; 30 min) is reported as 0.27 ± 0.05 % ID/g. It also gave a Heart uptake ([2]; 30 min) of 0.40 ± 0.07 % ID/g, a Kidney uptake ([2]; 30 min) of 2.17 ± 0.43 % ID/g and a Liver uptake ([2]; 30 min) of 0.39 ± 0.12 % ID/g. It also gave a Lung uptake ([2]; 30 min) of 0.78 ± 0.12 % ID/g, a Muscle uptake ([2]; 30 min) of 0.37 ± 0.08 % ID/g and a Small intestine uptake ([2]; 30 min) of 0.44 ± 0.08 % ID/g. The Spleen uptake ([2]; 30 min) was 0.28 ± 0.05 % ID/g, the Stomach uptake ([2]; 30 min) was 0.64 ± 0.25 % ID/g and the Tumor uptake ([2]; 30 min) was 1.49 ± 0.08 % ID/g. It also gave a Tumor/blood ratio ([2]; 30 min) of 1.91, a Tumor/muscle ratio ([2]; 30 min) of 4.03 and a Blood uptake ([2]; 60 min) of 0.12 ± 0.03 % ID/g. The Bone uptake ([2]; 60 min) was 0.15 ± 0.02 % ID/g, the Heart uptake ([2]; 60 min) was 0.22 ± 0.04 % ID/g and the Kidney uptake ([2]; 60 min) was 1.05 ± 0.21 % ID/g. It also gave a Liver uptake ([2]; 60 min) of 0.23 ± 0.03 % ID/g, a Lung uptake ([2]; 60 min) of 0.23 ± 0.04 % ID/g and a Muscle uptake ([2]; 60 min) of 0.17 ± 0.07 % ID/g. The Small intestine uptake ([2]; 60 min) was 0.21 ± 0.14 % ID/g, the Spleen uptake ([2]; 60 min) was 0.15 ± 0.03 % ID/g and the Stomach uptake ([2]; 60 min) was 0.25 ± 0.07 % ID/g. For the same compound, the Tumor uptake ([2]; 60 min) was 1.00 ± 0.17 % ID/g, the Tumor/blood ratio ([2]; 60 min) was 8.33 and the Tumor/muscle ratio ([2]; 60 min) was 5.88. It also gave a Blood uptake ([2]; 120 min) of 0.04 ± 0.02 % ID/g, a Bone uptake ([2]; 120 min) of 0.13 ± 0.04 % ID/g and a Heart uptake ([2]; 120 min) of 0.22 ± 0.05 % ID/g. For the same compound, the Kidney uptake ([2]; 120 min) was 1.23 ± 0.26 % ID/g, the Liver uptake ([2]; 120 min) was 0.28 ± 0.04 % ID/g and the Lung uptake ([2]; 120 min) was 0.17 ± 0.05 % ID/g. The Muscle uptake ([2]; 120 min) was 0.17 ± 0.05 % ID/g, the Small intestine uptake ([2]; 120 min) was 0.14 ± 0.06 % ID/g and the Spleen uptake ([2]; 120 min) was 0.17 ± 0.06 % ID/g. For the same compound, the Stomach uptake ([2]; 120 min) was 0.31 ± 0.06 % ID/g, the Tumor uptake ([2]; 120 min) was 0.68 ± 0.23 % ID/g and the Tumor/blood ratio ([2]; 120 min) was 17.00. For the same compound, the Tumor/muscle ratio ([2]; 120 min) was 4.00, the Tumor/liver ratio [2] was 3.82 and the “SPECT imaging: aggregation at the tumor sites” value [3] was “evident aggregation at the tumor sites”. The “SPECT imaging: concentration in kidney” value [3] was “relatively high concentration in kidney” and the “SPECT imaging: uptake in other organs” value [3] was “relatively low”.

With `O=C(CC[N+]#[C][99Tc-5]([C]#[N+]CCC(=O)NC1C(O)OC(CO)C(O)C1O)([C]#[N+]CCC(=O)NC1C(O)OC(CO)C(O)C1O)([C]#[N+]CCC(=O)NC1C(O)OC(CO)C(O)C1O)([C]#[N+]CCC(=O)NC1C(O)OC(CO)C(O)C1O)[C]#[N+]CCC(=O)NC1C(O)OC(CO)C(O)C1O)NC1C(O)OC(CO)C(O)C1O` (centres unmarked) [[^99mTc-(CN2DG)6]^+] the “Log P” value [1] was −4.26±0.12, the Blood uptake ([2]; 30 min) was 0.94 ± 0.18 % ID/g and the Bone uptake ([2]; 30 min) was 0.32 ± 0.07 % ID/g. It also gave a Heart uptake ([2]; 30 min) of 0.34 ± 0.06 % ID/g, a Kidney uptake ([2]; 30 min) of 3.11 ± 1.04 % ID/g and a Liver uptake ([2]; 30 min) of 0.35 ± 0.06 % ID/g. The Lung uptake ([2]; 30 min) was 0.94 ± 0.18 % ID/g, the Muscle uptake ([2]; 30 min) was 0.27 ± 0.07 % ID/g and the Small intestine uptake ([2]; 30 min) was 0.44 ± 0.16 % ID/g. It also gave a Spleen uptake ([2]; 30 min) of 0.31 ± 0.09 % ID/g, a Stomach uptake ([2]; 30 min) of 0.38 ± 0.15 % ID/g and a Tumor uptake ([2]; 30 min) of 1.09 ± 0.23 % ID/g. The Tumor/blood ratio ([2]; 30 min) was 1.16, the Tumor/muscle ratio ([2]; 30 min) was 4.04 and the Blood uptake ([2]; 60 min) was 0.20 ± 0.05 % ID/g. The Bone uptake ([2]; 60 min) was 0.10 ± 0.02 % ID/g, the Heart uptake ([2]; 60 min) was 0.12 ± 0.02 % ID/g and the Kidney uptake ([2]; 60 min) was 1.17 ± 0.27 % ID/g. For the same compound, the Liver uptake ([2]; 60 min) was 0.18 ± 0.02 % ID/g, the Lung uptake ([2]; 60 min) was 0.26 ± 0.06 % ID/g and the Muscle uptake ([2]; 60 min) was 0.08 ± 0.00 % ID/g. The Small intestine uptake ([2]; 60 min) was 0.19 ± 0.03 % ID/g, the Spleen uptake ([2]; 60 min) was 0.13 ± 0.02 % ID/g and the Stomach uptake ([2]; 60 min) was 0.19 ± 0.07 % ID/g. It also gave a Tumor uptake ([2]; 60 min) of 0.50 ± 0.07 % ID/g, a Tumor/blood ratio ([2]; 60 min) of 2.78 and a Tumor/muscle ratio ([2]; 60 min) of 6.25. The Blood uptake ([2]; 120 min) was 0.01 ± 0.00 % ID/g, the Bone uptake ([2]; 120 min) was 0.05 ± 0.02 % ID/g and the Heart uptake ([2]; 120 min) was 0.05 ± 0.02 % ID/g. The Kidney uptake ([2]; 120 min) was 0.68 ± 0.11 % ID/g, the Liver uptake ([2]; 120 min) was 0.09 ± 0.01 % ID/g and the Lung uptake ([2]; 120 min) was 0.09 ± 0.04 % ID/g. It also gave a Muscle uptake ([2]; 120 min) of 0.04 ± 0.01 % ID/g, a Small intestine uptake ([2]; 120 min) of 0.12 ± 0.02 % ID/g and a Spleen uptake ([2]; 120 min) of 0.07 ± 0.01 % ID/g. It also gave a Stomach uptake ([2]; 120 min) of 0.15 ± 0.06 % ID/g, a Tumor uptake ([2]; 120 min) of 0.25 ± 0.05 % ID/g and a Tumor/blood ratio ([2]; 120 min) of 25.00. For the same compound, the Tumor/muscle ratio ([2]; 120 min) was 6.25 and the Tumor/liver ratio [2] was 3.11.

For `O=C(NC1C(O)O[C@H](CO)[C@@H](O)[C@@H]1O)C1C[S][Tc]23(=[O])[S]C[C@@H](C(=O)NC4C(O)O[C@H](CO)[C@@H](O)[C@@H]4O)[N]2CC[N]13` (some centres unmarked) [^99mTc-ECDG], the Blood uptake [4] is listed as 1.61 ± 0.39 % ID/g, the Kidney uptake [4] is listed as 6.73 ± 1.84 % ID/g and the Liver uptake [4] is listed as 5.67 ± 2.08 % ID/g. For the same compound, the Muscle uptake [4] was 0.26 ± 0.07 % ID/g, the Tumor uptake [4] was 0.79 ± 0.16 % ID/g and the Tumor/blood ratio [4] was 0.49. For the same compound, the Tumor/liver ratio [4] was 0.14 and the Tumor/muscle ratio [4] was 3.04.

In the case of `O=C(CCCC[N+]#[C][99Tc-5]([C]#[N+]CCCCC(=O)NC1C(O)OC(CO)C(O)C1O)([C]#[N+]CCCCC(=O)NC1C(O)OC(CO)C(O)C1O)([C]#[N+]CCCCC(=O)NC1C(O)OC(CO)C(O)C1O)([C]#[N+]CCCCC(=O)NC1C(O)OC(CO)C(O)C1O)[C]#[N+]CCCCC(=O)NC1C(O)OC(CO)C(O)C1O)NC1C(O)OC(CO)C(O)C1O` (centres unmarked) [[^99mTc-(CN4DG)6]^+], the “Log P” value [1] is reported as −3.84±0.06, the Blood uptake ([2]; 30 min) is reported as 1.80 ± 0.53 % ID/g and the Bone uptake ([2]; 30 min) is reported as 0.73 ± 0.23 % ID/g. It also gave a Heart uptake ([2]; 30 min) of 0.70 ± 0.18 % ID/g, a Kidney uptake ([2]; 30 min) of 4.93 ± 1.11 % ID/g and a Liver uptake ([2]; 30 min) of 0.66 ± 0.13 % ID/g. The Lung uptake ([2]; 30 min) was 1.75 ± 0.49 % ID/g, the Muscle uptake ([2]; 30 min) was 0.57 ± 0.18 % ID/g and the Small intestine uptake ([2]; 30 min) was 1.06 ± 0.33 % ID/g. The Spleen uptake ([2]; 30 min) was 0.53 ± 0.12 % ID/g, the Stomach uptake ([2]; 30 min) was 0.81 ± 0.33 % ID/g and the Tumor uptake ([2]; 30 min) was 1.72 ± 0.30 % ID/g. For the same compound, the Tumor/blood ratio ([2]; 30 min) was 0.95, the Tumor/muscle ratio ([2]; 30 min) was 3.01 and the Blood uptake ([2]; 60 min) was 0.30 ± 0.13 % ID/g. For the same compound, the Bone uptake ([2]; 60 min) was 0.19 ± 0.04 % ID/g, the Heart uptake ([2]; 60 min) was 0.22 ± 0.08 % ID/g and the Kidney uptake ([2]; 60 min) was 1.57 ± 0.27 % ID/g. The Liver uptake ([2]; 60 min) was 0.28 ± 0.06 % ID/g, the Lung uptake ([2]; 60 min) was 0.40 ± 0.11 % ID/g and the Muscle uptake ([2]; 60 min) was 0.27 ± 0.17 % ID/g. For the same compound, the Small intestine uptake ([2]; 60 min) was 0.25 ± 0.11 % ID/g, the Spleen uptake ([2]; 60 min) was 0.21 ± 0.04 % ID/g and the Stomach uptake ([2]; 60 min) was 0.23 ± 0.07 % ID/g. For the same compound, the Tumor uptake ([2]; 60 min) was 0.88 ± 0.09 % ID/g, the Tumor/blood ratio ([2]; 60 min) was 2.93 and the Tumor/muscle ratio ([2]; 60 min) was 3.26. For the same compound, the Blood uptake ([2]; 120 min) was 0.03 ± 0.01 % ID/g, the Bone uptake ([2]; 120 min) was 0.13 ± 0.09 % ID/g and the Heart uptake ([2]; 120 min) was 0.10 ± 0.04 % ID/g. It also gave a Kidney uptake ([2]; 120 min) of 1.24 ± 0.53 % ID/g, a Liver uptake ([2]; 120 min) of 0.17 ± 0.03 % ID/g and a Lung uptake ([2]; 120 min) of 0.13 ± 0.02 % ID/g. The Muscle uptake ([2]; 120 min) was 0.15 ± 0.07 % ID/g, the Small intestine uptake ([2]; 120 min) was 0.36 ± 0.21 % ID/g and the Spleen uptake ([2]; 120 min) was 0.11 ± 0.02 % ID/g. For the same compound, the Stomach uptake ([2]; 120 min) was 0.08 ± 0.01 % ID/g, the Tumor uptake ([2]; 120 min) was 0.45 ± 0.17 % ID/g and the Tumor/blood ratio ([2]; 120 min) was 15.00. For the same compound, the Tumor/muscle ratio ([2]; 120 min) was 3.00 and the Tumor/liver ratio [2] was 2.60.
